# Data published in ChEMBL document CHEMBL4190187, “Discovery of pyrazolopyrimidine derivatives as novel inhibitors of ataxia telangiectasia and rad3 related protein (ATR)” (Bioorg Med Chem Lett, 2017).
# Key:
# [1] = target: Serine/threonine-protein kinase NIM1 (Homo sapiens) (UniProt Q8IY84); assay: Inhibition of recombinant full-length human NIM1 at 1 uM using KKKVSRSGLYRSPSMPENLNRPR as substrate after 40 mins in presence of [gamma-33P]ATP by scintillation counting method
# [2] = target: Activated CDC42 kinase 1 (Homo sapiens) (UniProt Q07912); assay: Inhibition of recombinant human ACK1 (1 to 389 residues) at 1 uM using EFPIYDFLPAKKK as substrate after 40 mins in presence of [gamma-33P]ATP by scintillation counting method
# [3] = target: MAPK/MAK/MRK overlapping kinase (Homo sapiens) (UniProt Q9UQ07); assay: Inhibition of recombinant human MOK (1 to 343 residues) at 1 uM using RSRSRSRSRSRSRSR as substrate after 40 mins in presence of [gamma-33P]ATP by scintillation counting method
# [4] = target: Rhodopsin kinase GRK7 (Homo sapiens) (UniProt Q8WTQ7); assay: Inhibition of recombinant full-length human GRK7 at 1 uM using casein as substrate after 40 mins in presence of [gamma-33P]ATP by scintillation counting method
# [5] = target: Tyrosine-protein kinase ABL1 (Homo sapiens) (UniProt P00519); assay: Inhibition of recombinant full-length human Abl at 1 uM using EAIYAAPFAKKK as substrate after 40 mins in presence of [gamma-33P]ATP by scintillation counting method
# [6] = target: Serine/threonine-protein kinase 25 (Homo sapiens) (UniProt O00506); assay: Inhibition of recombinant human STK25 (1 to 308 residues) at 1 uM using RLGRDKYKTLRQIRQ as substrate after 40 mins in presence of [gamma-33P]ATP by scintillation counting method
# [7] = target: Fibroblast growth factor receptor 3 (Homo sapiens) (UniProt P22607); assay: Inhibition of recombinant human FGFR3 (447 to 761 residues) at 1 uM using poly(Glu,Tyr) 4:1 as substrate after 40 mins in presence of [gamma-33P]ATP by scintillation counting method
# [8] = target: Interferon-induced, double-stranded RNA-activated protein kinase (Homo sapiens) (UniProt P19525); assay: Inhibition of recombinant human PKR (501 to end residues) at 1 uM using AKRRRLSSLRA as substrate after 40 mins in presence of [gamma-33P]ATP by scintillation counting method
# [9] = target: Tyrosine-protein kinase Lyn (Mus musculus) (UniProt P25911); assay: Inhibition of recombinant full-length mouse Lyn at 1 uM using poly(Glu,Tyr) 4:1 as substrate after 40 mins in presence of [gamma-33P]ATP by scintillation counting method
# Tyrosine-protein kinase Lyn (Mus musculus), sequence (P25911 whole entry): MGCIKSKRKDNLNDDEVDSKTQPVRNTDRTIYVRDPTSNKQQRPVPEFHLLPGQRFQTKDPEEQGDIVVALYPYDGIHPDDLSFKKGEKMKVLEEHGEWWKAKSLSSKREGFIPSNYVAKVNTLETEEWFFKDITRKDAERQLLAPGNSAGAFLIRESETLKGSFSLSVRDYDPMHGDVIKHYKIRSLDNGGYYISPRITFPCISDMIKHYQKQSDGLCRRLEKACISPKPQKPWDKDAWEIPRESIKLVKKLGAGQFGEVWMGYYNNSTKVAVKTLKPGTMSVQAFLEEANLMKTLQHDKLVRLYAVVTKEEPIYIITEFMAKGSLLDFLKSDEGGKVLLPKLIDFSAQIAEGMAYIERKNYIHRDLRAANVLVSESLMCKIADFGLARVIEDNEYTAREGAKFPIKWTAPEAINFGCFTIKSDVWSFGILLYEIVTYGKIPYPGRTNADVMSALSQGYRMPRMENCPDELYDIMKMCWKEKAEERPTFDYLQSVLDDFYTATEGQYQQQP
# [10] = target: Ribosomal protein S6 kinase alpha-2 (Homo sapiens) (UniProt Q15349); assay: Inhibition of recombinant full-length human Rsk3 at 1 uM using KKKNRTLSVA as substrate after 40 mins in presence of [gamma-33P]ATP by scintillation counting method
# Ribosomal protein S6 kinase alpha-2 (Homo sapiens), sequence (Q15349 whole entry): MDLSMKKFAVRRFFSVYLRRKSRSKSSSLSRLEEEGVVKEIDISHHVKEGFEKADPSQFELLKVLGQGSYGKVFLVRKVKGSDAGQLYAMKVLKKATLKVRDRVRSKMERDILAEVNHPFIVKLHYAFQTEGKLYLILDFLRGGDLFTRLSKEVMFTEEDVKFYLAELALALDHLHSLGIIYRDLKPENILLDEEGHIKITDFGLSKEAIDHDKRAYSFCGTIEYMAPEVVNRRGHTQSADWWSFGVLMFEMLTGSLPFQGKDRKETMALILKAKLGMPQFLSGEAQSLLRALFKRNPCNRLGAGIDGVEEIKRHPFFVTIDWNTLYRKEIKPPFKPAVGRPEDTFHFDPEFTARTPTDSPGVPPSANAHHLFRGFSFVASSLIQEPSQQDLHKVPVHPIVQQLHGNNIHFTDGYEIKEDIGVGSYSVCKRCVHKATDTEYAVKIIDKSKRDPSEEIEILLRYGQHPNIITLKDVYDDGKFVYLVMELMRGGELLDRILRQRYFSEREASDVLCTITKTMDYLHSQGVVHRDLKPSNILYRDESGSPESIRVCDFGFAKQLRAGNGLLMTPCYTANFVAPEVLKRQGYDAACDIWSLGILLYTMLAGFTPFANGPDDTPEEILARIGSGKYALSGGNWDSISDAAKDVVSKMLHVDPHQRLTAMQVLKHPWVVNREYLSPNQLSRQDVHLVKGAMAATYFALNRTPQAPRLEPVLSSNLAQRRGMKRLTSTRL
# [11] = target: Tyrosine-protein kinase ABL1 (Mus musculus) (UniProt P00520); assay: Inhibition of recombinant mouse Abl (27 to end residues) at 1 uM using EAIYAAPFAKKK as substrate after 40 mins in presence of [gamma-33P]ATP by scintillation counting method
# [12] = tested on: Mus musculus; assay: Clearance in mouse at 2 mg/kg, iv or 10 mg/kg, po; assay type: ADME, organism-based; settings: in vivo
# [13] = target: Casein kinase I isoform delta (Homo sapiens) (UniProt P48730); assay: Inhibition of recombinant human CK1delta (1 to 294 residues) at 1 uM using KRRRALS(p)VASLPGL as substrate after 40 mins in presence of [gamma-33P]ATP by scintillation counting method
# [14] = target: Fibroblast growth factor receptor 2 (Homo sapiens) (UniProt P21802); assay: Inhibition of recombinant human FGFR2 (456 to 770 residues) at 1 uM using poly(Glu,Tyr) 4:1 as substrate after 40 mins in presence of [gamma-33P]ATP by scintillation counting method
# Fibroblast growth factor receptor 2 (Homo sapiens), sequence (P21802 22-821 limits assumed): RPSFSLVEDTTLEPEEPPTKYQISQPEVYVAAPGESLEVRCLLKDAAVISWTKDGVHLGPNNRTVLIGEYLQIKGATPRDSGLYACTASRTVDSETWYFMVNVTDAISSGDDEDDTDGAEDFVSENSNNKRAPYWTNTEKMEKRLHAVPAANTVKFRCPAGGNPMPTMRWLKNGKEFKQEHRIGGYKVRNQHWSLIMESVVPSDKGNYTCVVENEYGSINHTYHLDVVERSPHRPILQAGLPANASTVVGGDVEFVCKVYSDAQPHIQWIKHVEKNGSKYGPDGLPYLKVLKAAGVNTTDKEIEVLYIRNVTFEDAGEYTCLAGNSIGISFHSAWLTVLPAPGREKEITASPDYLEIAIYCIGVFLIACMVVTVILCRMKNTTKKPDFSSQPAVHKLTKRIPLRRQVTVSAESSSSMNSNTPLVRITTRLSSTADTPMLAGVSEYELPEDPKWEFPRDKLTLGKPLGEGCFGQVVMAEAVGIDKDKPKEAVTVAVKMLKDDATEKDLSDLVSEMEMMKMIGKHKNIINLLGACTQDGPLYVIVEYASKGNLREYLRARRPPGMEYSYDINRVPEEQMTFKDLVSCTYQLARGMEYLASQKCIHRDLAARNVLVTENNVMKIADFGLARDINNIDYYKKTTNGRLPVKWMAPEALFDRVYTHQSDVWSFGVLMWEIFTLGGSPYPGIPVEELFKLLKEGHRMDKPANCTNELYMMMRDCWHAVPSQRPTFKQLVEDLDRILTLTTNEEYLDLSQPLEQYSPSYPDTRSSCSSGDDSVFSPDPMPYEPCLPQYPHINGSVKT
# [15] = target: PI3K p110 beta/p85 alpha (Mus musculus) (UniProt P26450+Q8BTI9); assay: Inhibition of recombinant full-length mouse p110b/p85a at 1 uM using phosphatidylinositol 4,5-bisphosphate as substrate after 40 mins in presence of [gamma-33P]ATP by scintillation counting method; assay type: protein-complex assay
# [16] = target: Serine/threonine-protein kinase/endoribonuclease IRE1 (Homo sapiens) (UniProt O75460); assay: Inhibition of recombinant human IRE1 (465 to end residues) at 1 uM using myelin basic protein as substrate after 40 mins in presence of [gamma-33P]ATP by scintillation counting method
# [17] = target: Tyrosine-protein kinase Blk (Mus musculus) (UniProt P16277); assay: Inhibition of recombinant full-length mouse Blk at 1 uM using poly(Glu,Tyr) 4:1 as substrate after 40 mins in presence of [gamma-33P]ATP by scintillation counting method
# [18] = target: SRSF protein kinase 3 (Homo sapiens) (UniProt Q9UPE1); assay: Inhibition of recombinant full-length human MSSK1 at 1 uM using ERMRPRKRQGSVRRRV as substrate after 40 mins in presence of [gamma-33P]ATP by scintillation counting method
# [19] = target: Inhibitor of nuclear factor kappa-B kinase subunit beta (Homo sapiens) (UniProt O14920); assay: Inhibition of recombinant full-length human IKKbeta at 1 uM using peptide as substrate after 40 mins in presence of [gamma-33P]ATP by scintillation counting method
# Inhibitor of nuclear factor kappa-B kinase subunit beta (Homo sapiens), sequence (O14920 whole entry): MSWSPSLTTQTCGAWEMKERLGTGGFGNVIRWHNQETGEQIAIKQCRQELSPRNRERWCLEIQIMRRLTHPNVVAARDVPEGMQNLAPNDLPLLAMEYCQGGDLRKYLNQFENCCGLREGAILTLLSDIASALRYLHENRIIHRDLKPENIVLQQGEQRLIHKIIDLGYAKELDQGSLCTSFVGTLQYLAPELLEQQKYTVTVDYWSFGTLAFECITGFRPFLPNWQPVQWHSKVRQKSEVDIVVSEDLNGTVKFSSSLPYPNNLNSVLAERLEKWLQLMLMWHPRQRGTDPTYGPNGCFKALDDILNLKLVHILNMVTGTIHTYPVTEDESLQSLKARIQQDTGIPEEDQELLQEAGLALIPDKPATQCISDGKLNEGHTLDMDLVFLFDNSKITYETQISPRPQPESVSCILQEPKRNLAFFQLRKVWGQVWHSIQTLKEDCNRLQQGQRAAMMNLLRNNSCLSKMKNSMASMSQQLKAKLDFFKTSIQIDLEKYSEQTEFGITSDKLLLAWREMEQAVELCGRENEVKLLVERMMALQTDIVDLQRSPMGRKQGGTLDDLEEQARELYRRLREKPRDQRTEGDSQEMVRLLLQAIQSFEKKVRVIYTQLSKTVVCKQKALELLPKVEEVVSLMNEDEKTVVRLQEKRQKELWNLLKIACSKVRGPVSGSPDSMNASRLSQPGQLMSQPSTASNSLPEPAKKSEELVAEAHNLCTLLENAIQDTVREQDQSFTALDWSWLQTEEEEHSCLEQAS
# [20] = target: Phosphatidylinositol 3-kinase (Mus musculus) (UniProt P26450+P42337); assay: Inhibition of recombinant full-length mouse PI3K p110a/p85a at 1 uM using phosphatidylinositol 4,5-bisphosphate as substrate after 40 mins in presence of [gamma-33P]ATP by scintillation counting method; assay type: protein assay
# [21] = target: Insulin receptor (Homo sapiens) (UniProt P06213); assay: Inhibition of recombinant human activated IR (1005 to 1310 residues) at 1 uM using KKKSPGEYVNIEFG as substrate after 40 mins in presence of [gamma-33P]ATP by scintillation counting method
# [22] = tested on: Mus musculus; assay: AUC in mouse at 10 mg/kg, po; assay type: ADME, organism-based; settings: in vivo
# [23] = target: Tyrosine-protein kinase SYK (Homo sapiens) (UniProt P43405); assay: Inhibition of recombinant full-length human Syk at 1 uM using poly(Glu,Tyr) 4:1 as substrate after 40 mins in presence of [gamma-33P]ATP by scintillation counting method
# [24] = tested on: Angiopoietin-1 receptor (Homo sapiens), Q02763 [Y897S]; assay: Inhibition of recombinant activated human Tie2 Y897S mutant (771 to end residues) at 1 uM using EFPIYDFLPAKKK as substrate after 40 mins in presence of [gamma-33P]ATP by scintillation counting method
# Angiopoietin-1 receptor (Homo sapiens), Q02763 [Y897S], sequence (Q02763 whole entry Y897S): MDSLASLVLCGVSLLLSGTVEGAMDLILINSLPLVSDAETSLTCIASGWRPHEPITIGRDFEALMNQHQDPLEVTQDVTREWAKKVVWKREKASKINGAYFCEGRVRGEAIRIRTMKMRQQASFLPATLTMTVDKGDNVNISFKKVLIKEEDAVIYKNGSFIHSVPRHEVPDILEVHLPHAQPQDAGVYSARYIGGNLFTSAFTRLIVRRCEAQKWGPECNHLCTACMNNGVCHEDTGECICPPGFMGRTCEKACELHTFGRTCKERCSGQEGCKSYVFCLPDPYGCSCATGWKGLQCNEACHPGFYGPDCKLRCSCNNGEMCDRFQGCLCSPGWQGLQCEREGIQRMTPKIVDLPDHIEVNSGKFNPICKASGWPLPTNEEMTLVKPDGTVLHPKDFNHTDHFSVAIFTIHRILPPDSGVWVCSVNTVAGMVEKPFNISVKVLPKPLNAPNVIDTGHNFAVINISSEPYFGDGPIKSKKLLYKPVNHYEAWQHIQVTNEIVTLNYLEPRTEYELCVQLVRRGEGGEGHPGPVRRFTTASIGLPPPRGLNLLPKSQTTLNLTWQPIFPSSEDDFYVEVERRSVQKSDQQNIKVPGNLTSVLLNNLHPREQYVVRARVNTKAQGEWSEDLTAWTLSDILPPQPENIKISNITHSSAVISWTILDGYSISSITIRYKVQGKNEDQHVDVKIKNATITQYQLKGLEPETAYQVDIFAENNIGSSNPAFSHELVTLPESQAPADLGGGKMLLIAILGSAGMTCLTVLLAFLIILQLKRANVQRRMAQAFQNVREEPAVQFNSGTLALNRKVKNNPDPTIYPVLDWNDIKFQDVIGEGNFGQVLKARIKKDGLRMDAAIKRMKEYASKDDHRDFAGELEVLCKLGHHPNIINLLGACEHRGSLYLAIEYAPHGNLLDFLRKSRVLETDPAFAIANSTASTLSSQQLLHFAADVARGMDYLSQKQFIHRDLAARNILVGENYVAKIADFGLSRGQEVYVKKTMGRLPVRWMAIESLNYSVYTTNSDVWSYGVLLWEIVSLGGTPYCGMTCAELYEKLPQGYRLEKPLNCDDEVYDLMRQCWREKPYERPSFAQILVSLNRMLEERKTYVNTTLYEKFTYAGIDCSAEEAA
# [25] = target: Serine/threonine-protein kinase PLK1 (Homo sapiens) (UniProt P53350); assay: Inhibition of recombinant full-length human Plk1 at 1 uM using casein as substrate after 40 mins in presence of [gamma-33P]ATP by scintillation counting method
# Serine/threonine-protein kinase PLK1 (Homo sapiens), sequence (P53350 whole entry): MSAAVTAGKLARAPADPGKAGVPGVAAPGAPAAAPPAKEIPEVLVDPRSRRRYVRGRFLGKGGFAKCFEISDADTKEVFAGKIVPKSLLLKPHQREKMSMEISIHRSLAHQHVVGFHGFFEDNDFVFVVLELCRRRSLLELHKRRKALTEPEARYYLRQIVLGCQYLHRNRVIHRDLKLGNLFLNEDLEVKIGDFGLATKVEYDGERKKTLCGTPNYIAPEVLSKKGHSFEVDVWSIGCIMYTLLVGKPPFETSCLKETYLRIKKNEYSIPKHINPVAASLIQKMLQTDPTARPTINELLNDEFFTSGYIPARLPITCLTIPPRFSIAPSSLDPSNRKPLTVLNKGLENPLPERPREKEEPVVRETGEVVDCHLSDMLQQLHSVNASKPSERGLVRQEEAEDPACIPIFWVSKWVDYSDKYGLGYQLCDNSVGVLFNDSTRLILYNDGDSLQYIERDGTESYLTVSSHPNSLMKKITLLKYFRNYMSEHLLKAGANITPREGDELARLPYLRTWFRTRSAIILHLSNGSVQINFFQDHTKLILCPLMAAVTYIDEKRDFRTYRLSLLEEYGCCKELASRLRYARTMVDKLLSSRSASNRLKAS
# Serine/threonine-protein kinase NIM1 (Homo sapiens), sequence (Q8IY84 whole entry, the tested form may be a part): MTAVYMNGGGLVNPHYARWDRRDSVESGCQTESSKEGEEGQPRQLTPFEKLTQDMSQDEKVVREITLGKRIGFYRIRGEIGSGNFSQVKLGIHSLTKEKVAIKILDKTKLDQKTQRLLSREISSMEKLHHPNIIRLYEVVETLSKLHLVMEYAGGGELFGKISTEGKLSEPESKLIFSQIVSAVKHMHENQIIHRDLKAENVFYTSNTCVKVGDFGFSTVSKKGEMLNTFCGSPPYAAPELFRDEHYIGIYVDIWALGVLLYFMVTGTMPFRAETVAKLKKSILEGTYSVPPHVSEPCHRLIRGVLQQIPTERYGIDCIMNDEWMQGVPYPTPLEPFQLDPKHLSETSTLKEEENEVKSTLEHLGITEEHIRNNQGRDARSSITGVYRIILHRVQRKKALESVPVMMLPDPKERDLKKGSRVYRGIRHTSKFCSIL
structure (smiles),measurement,setting,value
CS(=O)(=O)c1ccc(-n2nc(-c3cnc4[nH]ccc4c3)c3c(N)ncnc32)cc1,inhibition,[1],-5%
same,inhibition,[2],44%
same,inhibition,[3],59%
same,inhibition,[4],-3%
same,inhibition,[5],66%
same,inhibition,[6],45%
same,inhibition,[7],5%
same,inhibition,[8],13%
same,inhibition,[9],45%
same,inhibition,[10],-8%
same,inhibition,[11],85%
same,CL,[12],1.33 L/h/kg
same,inhibition,[13],66%
same,inhibition,[14],17%
same,inhibition,[15],0%
same,inhibition,[16],2%
same,inhibition,[17],12%
same,inhibition,[18],-8%
same,inhibition,[19],-3%
same,inhibition,[20],10%
same,inhibition,[21],14%
same,AUC,[22],212 nM·h
same,inhibition,[23],7%
same,inhibition,[24],1%
same,inhibition,[25],-1%
